Holding throughout (type): functional
Test [1] has as its system Cornus florida. Kind of test: Phytotoxicity against Dogwood NCPV 100 assessed as leaf necrotic lesions at 50 ug by detached leaf spot method.
For test [2], the system named is Cornus florida. Kind of test: Phytotoxicity against Dogwood NCPV 101 assessed as leaf necrotic lesions at 50 ug by detached leaf spot method.
Test [3] concerns Cornus florida. Put plainly: Phytotoxicity against Dogwood NCPV 102 assessed as leaf necrotic lesions at 50 ug by detached leaf spot method.
In a further test the test system is Senna obtusifolia. Put plainly: Phytotoxicity against Sicklepod assessed as leaf necrotic lesions at 100 ug by detached leaf spot method.
A further test concerns Sida spinosa. Kind of test: Phytotoxicity against Prickly sida assessed as leaf necrotic lesions at 100 ug by detached leaf spot method.
The next test relates to Convolvulaceae. Put plainly: Phytotoxicity against Morning glory assessed as leaf necrotic lesions at 100 ug by detached leaf spot method.
The subject of a further test is Datura stramonium. Put plainly: Phytotoxicity against Jimsonweed assessed as leaf necrotic lesions at 100 ug by detached leaf spot method.
The next test deals with Sorghum halepense. Put plainly: Phytotoxicity against Johnsongrass assessed as leaf necrotic lesions at 100 ug by detached leaf spot method.
The next test has as its system Sorghum. Kind of test: Phytotoxicity against Sorghum assessed as leaf necrotic lesions at 100 ug by detached leaf spot method.
For the next test, the system named is Chenopodium album. Kind of test: Phytotoxicity against Lamb's quarters assessed as leaf necrotic lesions at 100 ug by detached leaf spot method.
A further test concerns Nasturtium officinale. Kind of test: Phytotoxicity against watercress assessed as leaf necrotic lesions at 100 ug by detached leaf spot method.
For the next test, the system named is Ambrosia artemisiifolia. Put plainly: Phytotoxicity against ragweed assessed as leaf necrotic lesions at 100 ug by detached leaf spot method.
Test [4] has as its system Agrobacterium tumefaciens. Kind of test: Antimicrobial activity against Agrobacterium tumefaciens at 500 ug/disk. The settings on record: for zone of inhibition at 500 µg/disc: read-out: IZ.
The subject of test [5] is Curtobacterium flaccumfaciens. Kind of test: Antimicrobial activity against Corynebacterium flaccumfaciens at 500 ug/disk. Particulars: for zone of inhibition at 500 µg/disc: read-out: IZ.
For test [6], the system named is Pectobacterium carotovorum. Put plainly: Antimicrobial activity against Erwinia carotovora at 500 ug/disk. The settings on record: for zone of inhibition at 500 µg/disc: read-out: IZ.
The test system of the next test is Escherichia coli. Kind of test: Antimicrobial activity against Escherichia coli at 500 ug/disk. Particulars: for zone of inhibition at 500 µg/disc: read-out: IZ.
For the next test, the system named is Aspergillus flavus. Put plainly: Antimicrobial activity against Aspergillus flavus at 500 ug/disk. Particulars: for zone of inhibition at 500 µg/disc: read-out: IZ.
A further test has as its system Colletotrichum acutatum. Put plainly: Antimicrobial activity against Colletotrichum acutatum at 500 ug/disk. Particulars: for zone of inhibition at 500 µg/disc: read-out: IZ.
In the next test the test system is Penicillium chrysogenum. Put plainly: Antimicrobial activity against Penicillium notatum at 500 ug/disk. The settings on record: for zone of inhibition at 500 µg/disc: read-out: IZ.

Calls of active or inactive are those of the source. The calls are words filed in the database; no cut-off is given here.

For `CC(C)=CCc1cc(C(=O)O)ccc1O`, the Activity was 38 mm2 in the test with Cornus florida [1]; 14 mm2 in the test with Cornus florida [2]; 24 mm2 in the test on Cornus florida [3]; 22 mm2 in the test on Senna obtusifolia; 42 mm2 in the test on Sida spinosa; 28 mm2 in the test with Convolvulaceae. The Activity was found to be 31 mm2 with Datura stramonium; 46 mm2 with Sorghum halepense; 75 mm2 in the test on Sorghum; 23 mm2 with Chenopodium album; 56 mm2 in the test on Nasturtium officinale; 36 mm2 in the test with Ambrosia artemisiifolia. Moreover, the zone of inhibition at 500 µg/disc was 8 mm in test [4]; 5 mm in test [5]; 5 mm in test [6]; 0 mm in the test on Escherichia coli; 4 mm in the test with Aspergillus flavus; 8 mm in the test with Colletotrichum acutatum. Moreover, the zone of inhibition at 500 µg/disc in the test with Penicillium chrysogenum is 6 mm.
Consider `CC(=O)Oc1cc(O)c2c(c1)C[C@H](C)OC2=O`, for which the Activity in the test with Cornus florida [1] was determined as 2 mm2; in the test on Cornus florida [2], 1 mm2; with Cornus florida [3], 1 mm2; in the test with Senna obtusifolia it was 14 mm2; in the test on Sida spinosa it was 34 mm2; in the test on Convolvulaceae, 13 mm2. For the same molecule, the Activity with Datura stramonium is reported as 18 mm2; with Sorghum halepense, 24 mm2; in the test on Sorghum it was 24 mm2; in the test with Chenopodium album it was 6 mm2; in the test on Nasturtium officinale, 31 mm2; with Ambrosia artemisiifolia it was 30 mm2. Further, the result (in [4]; in test [5]; in test [6]; with Escherichia coli; in the test with Aspergillus flavus; in the test with Colletotrichum acutatum) was inactive. For the same molecule, the outcome with Penicillium chrysogenum was inactive.
Regarding `CC(=O)Oc1ccc(C(=O)O)cc1CC=C(C)C`, the Activity worked out at 51 mm2 in the test on Cornus florida [1]; 23 mm2 in the test on Cornus florida [2]; 42 mm2 in the test with Cornus florida [3]; 18 mm2 in the test on Senna obtusifolia; 36 mm2 in the test with Sida spinosa; 19 mm2 in the test with Convolvulaceae. Besides, the Activity is on record as 22 mm2 in the test on Datura stramonium; 51 mm2 with Sorghum halepense; 73 mm2 with Sorghum; 8 mm2 in the test on Chenopodium album; 48 mm2 in the test with Nasturtium officinale; 38 mm2 with Ambrosia artemisiifolia. Moreover, the zone of inhibition at 500 µg/disc came out at 6 mm in test [4]; 10 mm in test [5]; 4 mm in test [6]; 0 mm in the test on Escherichia coli; 5 mm in the test with Aspergillus flavus; 6 mm with Colletotrichum acutatum. Besides, the zone of inhibition at 500 µg/disc in the test on Penicillium chrysogenum amounted to 5 mm.
As to `O=C1CC[C@@H](O)c2cccc(O)c21`, the Activity was 12 mm2 in the test with Cornus florida [1]; 5 mm2 in the test with Cornus florida [2]; 13 mm2 with Cornus florida [3]; 2 mm2 in the test on Senna obtusifolia; 18 mm2 in the test on Sida spinosa; 4 mm2 in the test on Convolvulaceae. For the same molecule, the Activity in the test with Datura stramonium stood at 6 mm2; in the test with Sorghum halepense, 13 mm2; with Sorghum it was 7 mm2; with Chenopodium album it was 5 mm2; in the test on Nasturtium officinale, 14 mm2; in the test on Ambrosia artemisiifolia, 12 mm2. Further, the result (in [4]; in [5]; in test [6]; in the test on Escherichia coli; in the test with Aspergillus flavus; in the test on Colletotrichum acutatum) was inactive. The outcome with Penicillium chrysogenum was inactive.
For `O=C(O)c1ccc(O)cc1` [PARABEN], the Activity with Cornus florida [1] came to 11 mm2; with Cornus florida [2], 10 mm2; in the test with Cornus florida [3], 5 mm2; with Senna obtusifolia, 10 mm2; with Sida spinosa, 31 mm2; in the test on Convolvulaceae, 15 mm2. Further, the Activity with Datura stramonium amounted to 12 mm2; in the test on Sorghum halepense, 22 mm2; in the test on Sorghum, 19 mm2; in the test on Chenopodium album, 9 mm2; in the test with Nasturtium officinale, 17 mm2; in the test with Ambrosia artemisiifolia, 15 mm2. In addition, the zone of inhibition at 500 µg/disc in [4] was found to be 0 mm; in [5], 9 mm; in test [6], 0 mm; with Escherichia coli it was 5 mm; in the test on Aspergillus flavus, 0 mm; in the test with Colletotrichum acutatum, 0 mm. Moreover, the zone of inhibition at 500 µg/disc in the test with Penicillium chrysogenum came to 0 mm.
For `C[C@H]1Cc2cc(O)cc(O)c2C(=O)O1`, the Activity with Cornus florida [1] stood at 7 mm2; in the test on Cornus florida [2], 14 mm2; in the test with Cornus florida [3], 10 mm2; with Senna obtusifolia, 20 mm2; in the test on Sida spinosa, 40 mm2; in the test on Convolvulaceae it was 24 mm2. In addition, the Activity in the test on Datura stramonium is on record as 24 mm2; in the test with Sorghum halepense, 34 mm2; in the test with Sorghum, 40 mm2; in the test with Chenopodium album it was 14 mm2; in the test with Nasturtium officinale, 36 mm2; in the test on Ambrosia artemisiifolia it was 60 mm2. The outcome (in [4]; in test [5]; in test [6]; with Escherichia coli; with Aspergillus flavus; with Colletotrichum acutatum) was inactive. Moreover, in the test with Penicillium chrysogenum, the outcome was inactive.

(Values after ChEMBL document CHEMBL1158983, “Toxins Produced by the Dogwood Anthracnose Fungus Discula sp” (1991).)
